Measured values taken from patent publication US20230073777A1, “CYCLIC-AMP RESPONSE ELEMENT BINDING PROTEIN (CBP) AND/OR ADENOVIRAL E1A BINDING PROTEIN OF 300 KDA (P300) DEGRADATION COMPOUNDS AND METHODS OF USE” (CULLGEN (SHANGHAI), INC., priority 2019, published 2023).
Where two headings read alike, the source gives them in different places.

Assays:
LNCaP cells = experiment: LNCaP cell viability assay (CellTiter-Glo); type: cell-based; conditions: Homo sapiens, 72 h, LNCaP prostate cancer cell viability inhibition, 3 days
Method in brief: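 Three-day treatment of LNCaP cells (5000 per well) across a 12-point, 3-fold dilution series starting at 10 μM. ATP luminescence (CellTiter-Glo) relative to untreated controls gave dose-response curves fitted nonlinearly for IC50.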

P300 = P300 (Homo sapiens, UniProt Q09472); experiment: Immunoblotting of P300 protein levels in LNCaP or 22RV1 cells; type: cell-based; set-up: LNCaP or 22RV1 cells that express CBP/P300 proteins were treated with GNE-781 or the bivalent compounds; endogenous in cells; host or cells: LNCaP (clone FGC) or 22RV1 cells; conditions: read-out: Degradation (10 nM)
Method in brief: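 P300/CBP levels quantified by chemiluminescent immunoblot band densitometry, normalized against tubulin or vinculin loading controls. Lysates came from LNCaP or 22RV1 cells exposed to compounds or DMSO vehicle for indicated times.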

[1] = percentage of inhibition of p300 at 10 nM (Table 2)
[2] = percentage of inhibition of p300 at 10 nM (Table 3)

Sequence of P300 (Q09472 whole entry): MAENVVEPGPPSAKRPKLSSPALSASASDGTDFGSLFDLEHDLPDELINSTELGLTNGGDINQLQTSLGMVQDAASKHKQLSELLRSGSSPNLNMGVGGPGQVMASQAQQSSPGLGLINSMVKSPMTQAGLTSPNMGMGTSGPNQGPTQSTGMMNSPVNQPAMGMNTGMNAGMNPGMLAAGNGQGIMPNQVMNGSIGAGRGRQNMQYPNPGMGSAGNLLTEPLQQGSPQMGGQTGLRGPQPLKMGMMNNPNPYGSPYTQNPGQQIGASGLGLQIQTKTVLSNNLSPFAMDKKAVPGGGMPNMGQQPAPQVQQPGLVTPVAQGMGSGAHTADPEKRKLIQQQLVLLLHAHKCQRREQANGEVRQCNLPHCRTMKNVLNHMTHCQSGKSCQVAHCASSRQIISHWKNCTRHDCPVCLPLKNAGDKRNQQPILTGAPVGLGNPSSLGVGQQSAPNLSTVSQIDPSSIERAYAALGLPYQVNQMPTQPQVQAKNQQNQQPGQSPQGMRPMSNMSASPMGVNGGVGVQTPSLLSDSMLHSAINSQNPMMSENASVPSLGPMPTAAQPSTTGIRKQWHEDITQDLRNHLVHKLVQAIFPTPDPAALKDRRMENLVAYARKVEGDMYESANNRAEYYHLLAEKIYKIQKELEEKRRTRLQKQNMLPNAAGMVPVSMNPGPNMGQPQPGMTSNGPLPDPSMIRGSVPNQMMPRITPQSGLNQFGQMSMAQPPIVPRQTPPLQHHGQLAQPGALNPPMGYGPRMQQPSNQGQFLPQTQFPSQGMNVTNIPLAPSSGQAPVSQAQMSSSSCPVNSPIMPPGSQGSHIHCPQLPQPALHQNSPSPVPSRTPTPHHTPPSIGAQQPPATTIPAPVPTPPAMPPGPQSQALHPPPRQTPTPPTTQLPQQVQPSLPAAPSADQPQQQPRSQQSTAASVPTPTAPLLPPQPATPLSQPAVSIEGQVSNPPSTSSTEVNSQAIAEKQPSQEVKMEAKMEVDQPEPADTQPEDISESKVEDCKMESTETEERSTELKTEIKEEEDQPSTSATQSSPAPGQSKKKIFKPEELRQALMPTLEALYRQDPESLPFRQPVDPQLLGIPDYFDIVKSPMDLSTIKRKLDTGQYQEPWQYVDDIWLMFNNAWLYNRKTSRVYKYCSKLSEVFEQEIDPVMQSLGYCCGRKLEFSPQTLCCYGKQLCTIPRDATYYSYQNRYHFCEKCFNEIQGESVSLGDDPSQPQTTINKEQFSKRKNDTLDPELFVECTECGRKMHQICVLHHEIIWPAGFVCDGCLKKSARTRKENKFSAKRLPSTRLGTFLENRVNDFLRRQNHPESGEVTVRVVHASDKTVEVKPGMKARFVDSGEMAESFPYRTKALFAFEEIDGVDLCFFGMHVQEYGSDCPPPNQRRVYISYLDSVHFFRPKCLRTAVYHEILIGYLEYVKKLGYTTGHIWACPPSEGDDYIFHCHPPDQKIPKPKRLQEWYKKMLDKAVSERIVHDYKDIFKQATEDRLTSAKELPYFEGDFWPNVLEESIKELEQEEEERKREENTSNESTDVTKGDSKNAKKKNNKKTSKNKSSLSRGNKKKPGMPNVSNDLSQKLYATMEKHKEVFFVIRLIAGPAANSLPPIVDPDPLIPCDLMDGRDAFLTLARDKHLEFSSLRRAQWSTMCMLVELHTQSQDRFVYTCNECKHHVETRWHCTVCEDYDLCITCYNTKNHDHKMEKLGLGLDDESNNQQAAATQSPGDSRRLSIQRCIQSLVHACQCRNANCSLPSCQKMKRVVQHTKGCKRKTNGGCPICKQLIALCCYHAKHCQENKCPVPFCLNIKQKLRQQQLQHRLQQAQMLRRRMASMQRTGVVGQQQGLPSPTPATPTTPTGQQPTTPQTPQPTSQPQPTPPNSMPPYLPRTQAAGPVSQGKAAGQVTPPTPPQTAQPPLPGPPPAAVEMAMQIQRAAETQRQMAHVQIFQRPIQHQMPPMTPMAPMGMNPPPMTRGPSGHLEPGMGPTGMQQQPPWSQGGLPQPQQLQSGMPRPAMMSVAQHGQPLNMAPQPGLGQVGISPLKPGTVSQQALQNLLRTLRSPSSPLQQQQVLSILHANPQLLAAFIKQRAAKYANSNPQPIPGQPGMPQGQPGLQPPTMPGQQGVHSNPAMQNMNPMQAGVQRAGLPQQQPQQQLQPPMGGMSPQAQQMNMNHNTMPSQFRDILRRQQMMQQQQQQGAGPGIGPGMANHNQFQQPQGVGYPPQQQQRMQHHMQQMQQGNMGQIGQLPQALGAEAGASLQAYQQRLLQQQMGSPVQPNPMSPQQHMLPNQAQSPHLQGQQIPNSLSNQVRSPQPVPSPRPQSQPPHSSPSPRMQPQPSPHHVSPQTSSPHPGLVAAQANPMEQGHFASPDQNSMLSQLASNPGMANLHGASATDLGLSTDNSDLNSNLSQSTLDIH

SMILES	IC50 (LNCaP cells; CellTiter-Glo (Table 2))	inhibition at 0.01 µM (P300; [1])	IC50 (LNCaP cells; CellTiter-Glo (Table 3))	inhibition at 0.01 µM (P300; [2])
CNC(=O)N1CCc2c(c(N3CCCc4cc(-c5cnn(C)c5)c(C(F)F)cc43)nn2C2CCN(C(=O)CCCCCCCNc3cccc4c3C(=O)N(C3CCC(=O)NC3=O)C4=O)CC2)C1 (stereo not shown) [P-036, 3-(7-(difluoromethyl)-6-(1-methyl-1H-pyrazol-4-yl)-3,4-dihydroquinolin-1(2H)-yl)-1-(1-(8-((2-(2,6-dioxopiperidin-3-yl)-1,3-dioxoisoindolin-4-yl)amino)octanoyl)piperidin-4-yl)-N-methyl-1,4,6,7-tetrahydro-5H-pyrazolo[4,3-c]pyridine-5-carboxamide]	0.8 nM	> 80%		
CNC(=O)N1CCc2c(c(N3CCCc4cc(-c5cnn(CC(=O)NCCOCCOCCOCCOCCNc6ccc7c(c6)C(=O)N(C6CCC(=O)NC6=O)C7=O)c5)c(C(F)F)cc43)nn2C2CCOCC2)C1 (stereo not shown) [P-031, 3-(7-(Difluoromethyl)-6-(1-(17-((2-(2,6-dioxopiperidin-3-yl)-1,3-dioxoisoindolin-5-yl)amino)-2-oxo-6,9,12,15-tetraoxa-3-azaheptadecyl)-1H-pyrazol-4-yl)-3,4-dihydroquinolin-1(2H)-yl)-N-methyl-1-(tetrahydro-2H-pyran-4-yl)-1,4,6,7-tetrahydro-5H-pyrazolo[4,3-c]pyridine-5-carboxamide]	566 nM	< 20%		
CNC(=O)N1CCc2c(c(N3CCCc4cc(-c5cnn(C)c5)c(C(F)F)cc43)nn2C2CCN(C(=O)COCC(=O)N[C@H](C(=O)N3C[C@H](O)C[C@H]3C(=O)NCc3ccc(-c4scnc4C)cc3)C(C)(C)C)CC2)C1 [P-064, 3-(7-(Difluoromethyl)-6-(1-methyl-1H-pyrazol-4-yl)-3,4-dihydroquinolin-1(2H)-yl)-1-(1-(2-(2-(((S)-1-((2S,4R)-4-hydroxy-2-((4-(4-methylthiazol-5-yl)benzyl)carbamoyl)pyrrolidin-1-yl)-3,3-dimethyl-1-oxobutan-2-yl)amino)-2-oxoethoxy)acetyl)piperidin-4-yl)-N-methyl-1,4,6,7-tetrahydro-5H-pyrazolo[4,3-c]pyridine-5-carboxamide]			57.5 nM	< 20%
CNC(=O)N1CCc2c(c(N3CCCc4cc(-c5cnn(CC(=O)NCCCCCNc6cccc7c6C(=O)N(C6CCC(=O)NC6=O)C7=O)c5)c(C(F)F)cc43)nn2C2CCOCC2)C1 (stereo not shown) [P-040, 3-(7-(Difluoromethyl)-6-(1-(2-((5-((2-(2,6-dioxopiperidin-3-yl)-1,3-dioxoisoindolin-4-yl)amino)pentyl)amino)-2-oxoethyl)-1H-pyrazol-4-yl)-3,4-dihydroquinolin-1(2H)-yl)-N-methyl-1-(tetrahydro-2H-pyran-4-yl)-1,4,6,7-tetrahydro-5H-pyrazolo[4,3-c]pyridine-5-carboxamide]	96.4 nM	< 20%		
CNC(=O)N1CCc2c(c(N3CCCc4cc(-c5cnn(CC(=O)NCCOCCOCCOCCOCCOCCNc6cccc7c6C(=O)N(C6CCC(=O)NC6=O)C7=O)c5)c(C(F)F)cc43)nn2C2CCOCC2)C1 (stereo not shown) [P-025, 3-(7-(Difluoromethyl)-6-(1-(20-((2-(2,6-dioxopiperidin-3-yl)-1,3-dioxoisoindolin-4-yl)amino)-2-oxo-6,9,12,15,18-pentaoxa-3-azaicosyl)-1H-pyrazol-4-yl)-3,4-dihydroquinolin-1(2H)-yl)-N-methyl-1-(tetrahydro-2H-pyran-4-yl)-1,4,6,7-tetrahydro-5H-pyrazolo[4,3-c]pyridine-5-carboxamide]	1250 nM	< 20%		
CNC(=O)N1CCc2c(c(N3CCCc4cc(-c5cnn(CC(=O)NCCCNc6ccc7c(c6)C(=O)N(C6CCC(=O)NC6=O)C7=O)c5)c(C(F)F)cc43)nn2C2CCOCC2)C1 (stereo not shown) [P-017, 3-(7-(Difluoromethyl)-6-(1-(2-((3-((2-(2,6-dioxopiperidin-3-yl)-1,3-dioxoisoindolin-5-yl)amino)propyl)amino)-2-oxoethyl)-1H-pyrazol-4-yl)-3,4-dihydroquinolin-1(2H)-yl)-N-methyl-1-(tetrahydro-2H-pyran-4-yl)-1,4,6,7-tetrahydro-5H-pyrazolo[4,3-c]pyridine-5-carboxamide]	99.2 nM	< 20%		
CNC(=O)N1CCc2c(c(N3CCCc4cc(-c5cnn(CC(=O)NCCOCCOCCNc6cccc7c6C(=O)N(C6CCC(=O)NC6=O)C7=O)c5)c(C(F)F)cc43)nn2C2CCOCC2)C1 (stereo not shown) [P-022, 3-(7-(Difluoromethyl)-6-(1-(2-((2-(2-(2-((2-(2,6-dioxopiperidin-3-yl)-1,3-dioxoisoindolin-4-yl)amino)ethoxy)ethoxy)ethyl)amino)-2-oxoethyl)-1H-pyrazol-4-yl)-3,4-dihydroquinolin-1(2H)-yl)-N-methyl-1-(tetrahydro-2H-pyran-4-yl)-1,4,6,7-tetrahydro-5H-pyrazolo[4,3-c]pyridine-5-carboxamide]	389 nM	< 20%		

More lines, now with the values ahead:

IC50 (LNCaP cells; CellTiter-Glo (Table 2))	inhibition at 0.01 µM (P300; [1])	IC50 (LNCaP cells; CellTiter-Glo (Table 3))	inhibition at 0.01 µM (P300; [2])	SMILES
		1 nM	> 80%	CNC(=O)N1CCc2c(c(N3CCCc4cc(-c5cnn(C)c5)c(C(F)F)cc43)nn2C2CCN(CCCCCCNc3cccc4c3C(=O)N(C3CCC(=O)NC3=O)C4=O)CC2)C1 (stereo not shown) [P-090, 3-(7-(difluoromethyl)-6-(1-methyl-1H-pyrazol-4-yl)-3,4-dihydroquinolin-1(2H)-yl)-1-(1-(6-((2-(2,6-dioxopiperidin-3-yl)-1,3-dioxoisoindolin-4-yl)amino)hexyl)piperidin-4-yl)-N-methyl-1,4,6,7-tetrahydro-5H-pyrazolo[4,3-c]pyridine-5-carboxamide]
		0.4 nM	> 80%	CC(=O)N1CCc2c(c(N3CCCc4cc(-c5cnn(C)c5)c(C(F)F)cc43)nn2C2CCN(Cc3ccc(CCOc4cccc5c4CN(C4CCC(=O)NC4=O)C5=O)cc3)CC2)C1 (stereo not shown) [P-174, 3-(4-(4-((4-(5-acetyl-3-(7-(difluoromethyl)-6-(1-methyl-1H-pyrazol-4-yl)-3,4-dihydroquinolin-1(2H)-yl)-4,5,6,7-tetrahydro-1H-pyrazolo[4,3-c]pyridin-1-yl)piperidin-1-yl)methyl)phenethoxy)-1-oxoisoindolin-2-yl)piperidine-2,6-dione]
		2 nM	> 80%	CC(=O)N1CCc2c(c(N3CCCc4cc(-c5cnn(C)c5)c(C(F)F)cc43)nn2C2CCN(C(=O)CCCC3CN(c4cccc5c4C(=O)N(C4CCC(=O)NC4=O)C5=O)C3)CC2)C1 (stereo not shown) [P-146, 4-(3-(4-(4-(5-acetyl-3-(7-(difluoromethyl)-6-(1-methyl-1H-pyrazol-4-yl)-3,4-dihydroquinolin-1(2H)-yl)-4,5,6,7-tetrahydro-1H-pyrazolo[4,3-c]pyridin-1-yl)piperidin-1-yl)-4-oxobutyl)azetidin-1-yl)-2-(2,6-dioxopiperidin-3-yl)isoindoline-1,3-dione]
		17.8 nM	20 to 50%	CC(=O)N1CCc2c(c(N3CCCc4cc(-c5cnn(C)c5)c(C(F)F)cc43)nn2C2CCN(C(=O)CCCCCCc3cccc4c3C(=O)N(C3CCC(=O)NC3=O)C4=O)CC2)C1 (stereo not shown) [P-118, 4-(7-(4-(5-Acetyl-3-(7-(difluoromethyl)-6-(1-methyl-1H-pyrazol-4-yl)-3,4-dihydroquinolin-1(2H)-yl)-4,5,6,7-tetrahydro-1H-pyrazolo[4,3-c]pyridin-1-yl)piperidin-1-yl)-7-oxoheptyl)-2-(2,6-dioxopiperidin-3-yl)isoindoline-1,3-dione]
		56.5 nM	20 to 50%	CNC(=O)N1CCc2c(c(N3CCCc4cc(-c5cnn(C)c5)c(C(F)F)cc43)nn2C2CCN(C(=O)CCCCC#Cc3cccc4c3C(=O)N(C3CCC(=O)NC3=O)C4=O)CC2)C1 (stereo not shown) [P-092, 3-(7-(Difluoromethyl)-6-(1-methyl-1H-pyrazol-4-yl)-3,4-dihydroquinolin-1(2H)-yl)-1-(1-(7-(2-(2,6-dioxopiperidin-3-yl)-1,3-dioxoisoindolin-4-yl)hept-6-ynoyl)piperidin-4-yl)-N-methyl-1,4,6,7-tetrahydro-5H-pyrazolo[4,3-c]pyridine-5-carboxamide]
		> 10000 nM	< 20%	CNC(=O)N1CCc2c(c(N3CCCc4cc(-c5cnn(CC(=O)NCCCC(=O)N[C@H](C(=O)N6C[C@H](O)C[C@H]6C(=O)NCc6ccc(-c7scnc7C)cc6)C(C)(C)C)c5)c(C(F)F)cc43)nn2C2CCOCC2)C1 [P-079, 3-(7-(Difluoromethyl)-6-(1-(2-((4-(((S)-1-((2S,4R)-4-hydroxy-2-((4-(4-methylthiazol-5-yl)benzyl)carbamoyl)pyrrolidin-1-yl)-3,3-dimethyl-1-oxobutan-2-yl)amino)-4-oxobutyl)amino)-2-oxoethyl)-1H-pyrazol-4-yl)-3,4-dihydroquinolin-1(2H)-yl)-N-methyl-1-(tetrahydro-2H-pyran-4-yl)-1,4,6,7-tetrahydro-5H-pyrazolo[4,3-c]pyridine-5-carboxamide]
		469 nM	< 20%	CNC(=O)N1CCc2c(c(N3CCCc4cc(-c5cnn(CC(=O)NCCCCCCCCC(=O)N[C@H](C(=O)N6C[C@H](O)C[C@H]6C(=O)NCc6ccc(-c7scnc7C)cc6)C(C)(C)C)c5)c(C(F)F)cc43)nn2C2CCOCC2)C1 [P-081, 3-(7-(Difluoromethyl)-6-(1-(2-((9-(((S)-1-((2S,4R)-4-hydroxy-2-((4-(4-methylthiazol-5-yl)benzyl)carbamoyl)pyrrolidin-1-yl)-3,3-dimethyl-1-oxobutan-2-yl)amino)-9-oxononyl)amino)-2-oxoethyl)-1H-pyrazol-4-yl)-3,4-dihydroquinolin-1(2H)-yl)-N-methyl-1-(tetrahydro-2H-pyran-4-yl)-1,4,6,7-tetrahydro-5H-pyrazolo[4,3-c]pyridine-5-carboxamide]
